Laboratory results taken from ChEMBL document CHEMBL1141681, “Bradykinin B1 receptor antagonists: an alpha-hydroxy amide with an improved metabolism profile” (Bioorg Med Chem Lett, 2008).
Values belong to the compound of their own block, whether it stands above or below them.

Legend:
MDR1 (human) = experiment: (§1) Apparent permeability across pig L-MDR1 cells overexpressing human MDR1 at 5 uM after 3 hrs by LC/MS/MS analysis; type: ADME, cell-based, Sus scrofa; settings: LLC-PK1
[1] = Clearance in mongrel dog at 3 mg/kg, po and 1 mg/kg, iv; type: ADME, organism-based, Canis lupus familiaris; settings: in vivo
[2] = (§2) Half life in mongrel dog at 3 mg/kg, po and 1 mg/kg, iv; type: ADME, organism-based, Canis lupus familiaris; settings: mongrel, in vivo
[3] = Ratio of permeability from basolateral to apical side to apical to basolateral side in pig L-MDR1 cells overexpressing human MDR1 at 5 uM after 3 hrs by LC/MS/MS analysis; type: ADME, cell-based, Sus scrofa; settings: l-mdr1, 3 h
B1 bradykinin receptor = biological target: T1, B1 bradykinin receptor (Homo sapiens, UniProt P46663); experiment: Displacement of [3H]des-arg10leu9kallidin from human bradykinin B1 receptor expressed in CHO cells by Wallac beta-plate scintillation counting; type: cell-based
T1 sequence (P46663 whole entry): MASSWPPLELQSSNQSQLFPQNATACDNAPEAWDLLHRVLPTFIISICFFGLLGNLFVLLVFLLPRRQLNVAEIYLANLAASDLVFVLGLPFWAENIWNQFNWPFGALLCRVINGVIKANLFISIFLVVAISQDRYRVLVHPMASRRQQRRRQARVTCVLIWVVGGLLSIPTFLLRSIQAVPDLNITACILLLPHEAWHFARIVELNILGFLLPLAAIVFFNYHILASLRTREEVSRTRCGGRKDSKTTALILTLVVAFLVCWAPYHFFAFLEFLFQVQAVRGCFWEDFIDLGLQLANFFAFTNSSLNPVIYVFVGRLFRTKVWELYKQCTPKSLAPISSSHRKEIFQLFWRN

[4] = Oral bioavailability in mongrel dog at 3 mg/kg; type: ADME, organism-based, Canis lupus familiaris; settings: in vivo
[5] = Oral bioavailability in Sprague-Dawley rat at 10 mg/kg; type: ADME, organism-based; settings: in vivo
[6] = Half life in Sprague-Dawley rat at 10 mg/kg, po and 2 mg/kg, iv; type: ADME, organism-based; settings: in vivo
[7] = Ratio of drug level in brain to plasma of african green monkey at 2 mg/kg, iv after 30 mins by LC/MS/MS analysis; type: ADME, organism-based; design: dose 2 mg/kg, route intravenous; settings: chlorocebus aethiops, brain and plasma
Rattus norvegicus = experiment: Ex vivo displacement of [35S]N-{2-[4-(4,5-dihydro-1H-imidazol-2-yl)phenyl]ethyl}-2-[(2R)-1-(2-naphthylsulfonyl)-3-oxo-1,2,3,4-tetrahydroquinoxalin-2-yl]acetamide from human bradykinin B1 receptor expressed in iv dosed Sprague-Dawley rat brain by liquid scintillation counting; type: functional, organism-based
[8] = Clearance in Sprague-Dawley rat at 10 mg/kg, po and 2 mg/kg, iv; type: ADME, organism-based; settings: in vivo
Canis familiaris = experiment: as §2; type: ADME, organism-based, Canis lupus familiaris; settings: in vivo
[9] = as §1; type: ADME, cell-based, Sus scrofa; settings: l-mdr1, 3 h, 5 µM, 3 h

SMILES: C[C@@H](NC(=O)C1(O)CCS(=O)(=O)C1)c1ncc(-c2cc(Cl)cc(F)c2-c2nnn(C)n2)cc1F (stereo partly specified)
- Papp at 3 h, 5 µM (MDR1 (human)): 22 ×10⁻⁶ cm/s
- half-life [2]: 9.9 h
- Ratio [3]: 29
- Ki (B1 bradykinin receptor): 0.69 nM
- clearance [1]: 0.5 mL/min/kg

SMILES: C[C@@H](NC(=O)C1(O)CCOCC1)c1ncc(-c2cc(Cl)cc(F)c2-c2nnn(C)n2)cc1F
- Papp at 3 h, 5 µM (MDR1 (human)): 24 ×10⁻⁶ cm/s
- Ratio [3]: 8.2
- Ki (B1 bradykinin receptor): 0.96 nM

SMILES: C[C@@H](NC(=O)C1(O)CCC(F)(F)CC1)c1ncc(-c2cc(Cl)cc(F)c2-c2nnn(C)n2)cc1F
- Papp at 3 h, 5 µM (MDR1 (human)): 31 ×10⁻⁶ cm/s
- bioavailability [4]: 91%
- bioavailability [5]: 62%
- half-life [6]: 5.6 h
- half-life [2]: 20.3 h
- Kp at 0.5 h [7]: 0.63
- Ki (Rattus norvegicus): 140 nM
- Ratio [3]: 2
- Ki (B1 bradykinin receptor): 0.41 nM
- clearance [1]: 1 mL/min/kg
- clearance [8]: 2.2 mL/min/kg

SMILES: C[C@@H](NC(=O)C1(O)CCC(=O)C1)c1ncc(-c2cc(Cl)cc(F)c2-c2nnn(C)n2)cc1F (stereo partly specified)
- Papp at 3 h, 5 µM (MDR1 (human)): 31 ×10⁻⁶ cm/s
- half-life [2]: 9.8 h
- Ratio [3]: 16
- Ki (B1 bradykinin receptor): 0.67 nM
- clearance [1]: 0.3 mL/min/kg

SMILES: C[C@@H](NC(=O)C1(O)CCSC1)c1ncc(-c2cc(Cl)cc(F)c2-c2nnn(C)n2)cc1F (stereo partly specified)
- Papp at 3 h, 5 µM (MDR1 (human)): 31 ×10⁻⁶ cm/s
- half-life [2]: 5.4 h
- Ratio [3]: 2.9
- Ki (B1 bradykinin receptor): 0.39 nM
- clearance [1]: 3.2 mL/min/kg

SMILES: C[C@@H](NC(=O)C1(O)CC[S+]([O-])C1)c1ncc(-c2cc(Cl)cc(F)c2-c2nnn(C)n2)cc1F (stereo partly specified)
- Papp at 3 h, 5 µM (MDR1 (human)): 24 ×10⁻⁶ cm/s
- half-life [2]: 3.1 h
- Ratio [3]: 14.3
- Ki (B1 bradykinin receptor): 1.6 nM
- clearance [1]: 2.3 mL/min/kg

SMILES: C[C@@H](NC(=O)C1(O)CCCC1)c1ncc(-c2cc(Cl)cc(F)c2-c2nnn(C)n2)cc1F
- Papp at 3 h, 5 µM (MDR1 (human)): 29 ×10⁻⁶ cm/s
- bioavailability [5]: 26%
- half-life [6]: 5.5 h
- half-life [2]: 4.7 h
- Ki (Rattus norvegicus): 214 nM
- Ratio [3]: 2.1
- Ki (B1 bradykinin receptor): 0.48 nM
- clearance [1]: 0.6 mL/min/kg
- clearance [8]: 10 mL/min/kg

The next lines start with the values.

- Papp at 3 h, 5 µM (MDR1 (human)): 27 ×10⁻⁶ cm/s
- clearance [1]: 0.5 mL/min/kg
SMILES: Cc1nc(-c2c(F)cc(Cl)cc2-c2cnc([C@@H](C)NC(=O)[C@@](C)(O)C(F)(F)F)c(F)c2)no1

- Ki (B1 bradykinin receptor): 0.8 nM
SMILES: C[C@@H](NC(=O)[C@@](C)(O)C(F)(F)F)c1ncc(-c2cc(Cl)cc(F)c2-c2noc(CO)n2)cc1F

- Papp at 3 h, 5 µM (MDR1 (human)): 29 ×10⁻⁶ cm/s
- t1/2 (Canis familiaris): 3 h
- Ratio ([3]; 3 h): 2.6
- Ki (B1 bradykinin receptor): 1 nM
- clearance [1]: 0.3 mL/min/kg
SMILES: CC(NC(=O)C1(O)CCC(F)(F)C1)c1ncc(-c2cc(Cl)cc(F)c2-c2nnn(C)n2)cc1F (stereo in doubt; 11f)

- Papp [9]: 32 ×10⁻⁶ cm/s
- bioavailability [4]: 85%
- bioavailability [5]: 96%
- half-life [6]: 4.1 h
- t1/2 (Canis familiaris): 19 h
- Kp at 0.5 h [7]: 0.55
- Ki (Rattus norvegicus): 120 nM
- Ratio ([3]; 3 h): 1.9
- Ki (B1 bradykinin receptor): 0.67 nM
- clearance [8]: 5.2 mL/min/kg
SMILES: CC(NC(=O)C1(O)CCC(F)(F)C1)c1ncc(-c2cc(Cl)cc(F)c2-c2nnn(C)n2)cc1F (stereo in doubt; 11g)
